{"source": "paper PMC10916402", "about": "“Meropenem-ANT3310, a unique β-lactam-β-lactamase inhibitor combination with expanded antibacterial spectrum against Gram-negative pathogens including carbapenem-resistant Acinetobacter baumannii” (Antimicrobial Agents and Chemotherapy, 2024)", "key": {"[1]": {"target": "OXA-51 (Acinetobacter baumannii, UniProt Q5QT35)", "sequence (Q5QT35 entry or part of it)": "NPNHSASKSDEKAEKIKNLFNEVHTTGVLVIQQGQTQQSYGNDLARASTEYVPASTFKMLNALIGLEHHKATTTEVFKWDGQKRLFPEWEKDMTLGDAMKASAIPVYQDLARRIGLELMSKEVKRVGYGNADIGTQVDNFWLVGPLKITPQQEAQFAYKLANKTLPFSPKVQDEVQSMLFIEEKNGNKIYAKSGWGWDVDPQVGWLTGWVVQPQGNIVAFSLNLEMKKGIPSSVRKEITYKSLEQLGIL", "test": "In vitro SBL inhibition assay (nitrocefin hydrolysis), IC50", "assay_type": "biochemical, A. baumannii", "settings": "10 min preincubation, 30°C, read-out: Enzyme IC50", "experimental": "(§1) Nitrocefin (Sigma-Aldrich, St Louis, MO, USA), a chromogenic cephalosporin antibiotic (λ, 482 nm; εM, 15,000 M^−1.cm^−1), was used as a reporter substrate at 100 µM for KPC-2, OXA-23, and OXA-48, at 200 µM for OXA-24 and OXA-51, and at 50 µM for OXA-58. Enzymes were preincubated in the presence of varying concentrations of each compound (0.006 to 3000 nM, diluted twofold in dimethyl sulfoxide (DMSO) for KPC-2, OXA-23, and OXA-48 assays and 0.51 to 10,000 nM diluted threefold in DMSO for OXA-24, OXA-51, and OXA-58) for 10 min at 30°C. Nitrocefin was then added and its hydrolysis by the uninhibited enzyme fraction was followed at an absorbance wavelength of 482 nm for 10 min at 30°C using Envision UV fluorescence plate reader (Perkin Elmer, Waltham, MA, USA). Hydrolysis rate data were used to determine inhibitory activities, expressed in IC50 values [corresponding to the compound concentration (µM) required to inhibit 50% of enzymatic reaction]."}, "[2]": {"target": "OXA-58 (Acinetobacter baumannii, UniProt Q2TR58)", "sequence (Q2TR58 19-280)": "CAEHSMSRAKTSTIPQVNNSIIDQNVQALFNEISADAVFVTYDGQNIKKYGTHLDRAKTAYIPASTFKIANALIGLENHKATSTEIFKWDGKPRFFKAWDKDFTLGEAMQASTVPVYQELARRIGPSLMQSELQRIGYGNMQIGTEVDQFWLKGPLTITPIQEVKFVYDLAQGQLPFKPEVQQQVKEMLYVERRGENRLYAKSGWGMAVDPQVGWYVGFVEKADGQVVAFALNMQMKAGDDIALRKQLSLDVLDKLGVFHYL", "test": "In vitro SBL inhibition assay (nitrocefin hydrolysis), IC50", "assay_type": "biochemical, A. baumannii", "experimental": "as §1"}}}
{"smiles": "NC(=O)[C@@H]1CC[C@@H]2CN1C(=O)N2OS(=O)(=O)O", "note": "[Avi, avibactam]", "values": [{"measurement": "IC50", "setting": "[1]", "value": "> 10", "unit": "µM"}, {"measurement": "IC50", "setting": "[2]", "value": "> 10", "unit": "µM"}]}
